Data as given in PubChem BioAssay (NCI).
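Cells were grown in 96-well plates and exposed to each compound for 48 hours at five concentrations; endpoints were interpolated linearly between bracketing concentrations, or set to the highest concentration if not reached. GI50 = concentration required for 50% inhibition of growth. At the TGI there is no net growth.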

Tests used:
Experiment in all cases: NCI tumour cell line growth inhibition, 48 h
T-47D breast = test system: T-47D breast
NCI-H23 lung = test system: NCI-H23 lung
OVCAR-5 ovarian = test system: OVCAR-5 ovarian
MOLT-4 leukemia = test system: MOLT-4 leukemia
PC-3 prostate = test system: PC-3 prostate
CAKI-1 renal = test system: CAKI-1 renal
HOP-62 NSCLC = test system: HOP-62 NSCLC
NCI/ADR-RES ovarian = test system: NCI/ADR-RES ovarian
UO-31 renal = test system: UO-31 renal
A549 NSCLC = test system: A549 NSCLC

| SMILES | TGI (T-47D breast) [µM] | TGI (NCI-H23 lung) [µM] | TGI (OVCAR-5 ovarian) [µM] | TGI (MOLT-4 leukemia) [µM] | TGI (PC-3 prostate) [µM] | TGI (CAKI-1 renal) [µM] | TGI (HOP-62 NSCLC) [µM] | TGI (NCI/ADR-RES ovarian) [µM] | TGI (UO-31 renal) [µM] | TGI (A549 NSCLC) [µM] | GI50 (T-47D breast) [µM] | GI50 (NCI-H23 lung) [µM] | GI50 (OVCAR-5 ovarian) [µM] | GI50 (MOLT-4 leukemia) [µM] | GI50 (PC-3 prostate) [µM] | GI50 (CAKI-1 renal) [µM] | GI50 (HOP-62 NSCLC) [µM] | GI50 (NCI/ADR-RES ovarian) [µM] | GI50 (UO-31 renal) [µM] | GI50 (A549 NSCLC) [µM] |
| --- | --- | --- | --- | --- | --- | --- | --- | --- | --- | --- | --- | --- | --- | --- | --- | --- | --- | --- | --- | --- |
| O=c1oc2cc(O)ccc2c(O)c1C(c1ccccc1)c1c(O)c2ccc(O)cc2oc1=O | > 100 | > 100 | > 100 | > 100 | > 100 | > 100 | > 100 | > 100 | > 100 | > 100 |  |  |  |  |  |  |  |  |  |  |
| O=C1c2cc(-c3ccccc3)cnc2S(=O)(=O)N1c1ccc(Br)cc1 | > 100 | > 100 | > 100 | > 100 | > 100 | > 100 | 32.2 | > 100 | > 100 | 49.3 |  |  |  |  |  |  |  |  |  |  |
| CC(C)(C)[Si](C)(C)OCC1OC(n2ccc(=O)[nH]c2=O)C(O[Si](C)(C)C(C)(C)C)/C1=C/C#N (stereo not given) | > 100 | > 100 | > 100 | > 21.1 | > 100 | 98.2 | > 100 | > 42.3 | > 100 | > 100 |  |  |  |  |  |  |  |  |  |  |
| O=C(CCn1ccnc1[N+](=O)[O-])NCCCn1ccnc1[N+](=O)[O-] | > 100 | > 100 | > 100 | > 100 | > 100 | > 100 | > 100 | > 100 | > 100 | > 100 |  |  |  |  |  |  |  |  |  |  |
| CC(C)c1cc2c(c(O)c1O)[C@@]1(C(=O)O)CCCC(C)(C)[C@@H]1CC2 | 55 | 46.9 | 40 | 37.2 | 33.9 | 51.8 | 65.2 | 31.3 | 27.4 | 67.4 |  |  |  |  |  |  |  |  |  |  |
| C=CCc1cc(-c2nc(=S)[nH][nH]2)ccc1N=NNc1ccc(C(=O)O)cc1 | 70.2 | > 100 | > 100 | > 100 | > 100 | > 100 | > 100 | > 100 | > 100 | > 100 |  |  |  |  |  |  |  |  |  |  |
| COc1ccc(N2C(=O)CC(=O)N(NC(=O)C(C)Oc3ccccc3C)C2=S)cc1 (stereo not given) | > 100 | > 100 | > 100 | > 100 | > 100 | > 100 | > 100 | > 100 | > 100 | > 100 |  |  |  |  |  |  |  |  |  |  |
| C=C1C(=O)CC2C1CC(=O)/C(C)=C/CCC(C)(O)C2O (stereo not given) | 3.96 | 20.6 | 27.7 | 6.2 | 23.3 | 3.37 | 43.7 | 28.3 | 17.3 | 46.5 |  |  |  |  |  |  |  |  |  |  |
| O=C(O)[C@H]1CCCN1CP(=O)(O)CN1CCC[C@@H]1C(=O)O | > 100 | > 100 | > 100 | > 100 | > 100 | > 100 | > 100 | > 100 | > 100 | > 100 |  |  |  |  |  |  |  |  |  |  |
| Cc1cccc(C)c1NC(=O)C(Cc1c[nH]c2ccccc12)NC(=O)OCc1ccccc1 (stereo not given) | 61.2 | 70.8 | 51.6 | 63.7 | 28.8 | 50.2 | > 100 | 40.3 | 32.9 | 46.6 |  |  |  |  |  |  |  |  |  |  |
| O=[N+]([O-])C(=C(Nc1ccccc1)Nc1ccccc1)C(Cl)=C(Cl)Cl | 50.9 | 30 | 41.8 | 1.09 | 29.6 | 33.4 | 44.7 | 58.2 | 39.6 | 35.2 |  |  |  |  |  |  |  |  |  |  |
| C[n+]1c(/C=C/c2c(O)ccc3ccccc23)ccc2ccccc21 | 14.7 | 13.7 | 15.2 | 23.4 | 11.7 | 12.3 | 13.8 | 14.5 | 12 | 16.1 | 4.32 | 5.1 | 7.19 | 7.01 | 4 | 5.39 | 6.25 | 5.64 | 1.68 | 7.76 |
| O=[N+]([O-])C(=C(Nc1cccc2cccnc12)Nc1cccc2cccnc12)C(Cl)=C(Cl)Cl | > 100 | > 100 | > 100 | > 100 | > 100 | > 92.2 | > 100 | > 94 | > 100 | > 100 |  |  |  |  |  |  |  |  |  |  |
| N#CNC(=NCc1ccccc1)N(Cc1ccccc1)Cc1ccccc1 | > 100 | > 31.6 | > 31.6 | 47.7 | > 100 | 89.6 | > 31.6 | > 100 | 29.3 | > 31.6 |  |  |  |  |  |  |  |  |  |  |
| O=C1CC2(CCC(O)(c3ccc4ccccc4c3)C(C(=O)c3ccc4ccccc4c3)C2)C(=O)c2ccccc2N1 (stereo not given) | > 100 | > 100 | > 100 | > 100 | > 100 | > 100 | > 100 | > 100 | > 100 | > 100 |  |  |  |  |  |  |  |  |  |  |
